Results: patent US20150119394A1, “Insulin-Like Growth Factor-1 Receptor Inhibitors” (Merck Sharp & Dohme Corp., priority 2012, published 2015)

Columns and labels:
[1] = Oral absorption in Swiss mice; format: in vivo; settings: 10 mg/kg p.o.
Method: Oral absorption of different compounds was ascertained in Swiss mice. The procedure followed was as detailed below:
Species: Swiss mice, overnight fasted state
Sex and weight: Male, in the weight range of 25-30 g
Number of animals: 18 animals divided into six groups (n=3) and bled as follows:
Formulation: Compound suspended in 0.5% carboxymethylcellulose or 0.25% methylcellulose
Blood (250 μL) is collected from the retro-orbital sinus at designated time points from each mouse using heparinized bleeding capillaries into micro-centrifuge tubes containing 5 μL EDTA (200 mM) as anticoagulant. Plasma is separated by centrifugation at 10000 rpm for 5 min and samples stored at −70° C. until bioanalysis.
On the day of analysis, plasma samples are thawed at room temperature. An aliquot (100 μL) of each plasma sample is spiked individually with 10 μL of internal standard. The samples are then vortexed for 10 seconds followed by addition of 1 mL of extraction solvent and vortexed for 5 minutes. The samples are then centrifuged at 10000 rpm for 5 minutes at 4° C. Supernatants (800 μL) are removed and transferred to glass tubes and evaporated to dryness under nitrogen. The dried residues are reconstituted using 100 μL of 90:10% v/v acetonitrile:MilliQ water. The reconstituted samples are vortexed, centrifuged and injected into LC-MS/MS for analysis. The calibration curve is prepared in the range of 0.5 to 5000 ng/mL in mouse plasma for quantitation.

[2] = molecular target: T1, intracellular kinase domain of human IGF-1R (GST fusion protein) (Homo sapiens, UniProt P08069); assay: In vitro IGF-1R kinase assay (HTRF); format: biochemical; settings: ATP 20 μM, IGFRK 0.25 nM
T1 construct: IGFRK and IRK enzyme used for the assay was intracellular kinase domain of human IGF-1R; GST; made in house
T1 sequence (P08069 999-1274 limits assumed): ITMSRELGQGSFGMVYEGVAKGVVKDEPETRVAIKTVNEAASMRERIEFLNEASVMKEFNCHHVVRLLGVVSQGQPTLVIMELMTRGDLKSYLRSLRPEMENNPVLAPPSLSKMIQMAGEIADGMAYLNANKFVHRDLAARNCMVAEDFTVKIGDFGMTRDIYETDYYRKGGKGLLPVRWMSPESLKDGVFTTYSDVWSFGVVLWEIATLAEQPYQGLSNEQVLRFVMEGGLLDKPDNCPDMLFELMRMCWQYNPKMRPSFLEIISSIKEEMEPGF
Method: The in vitro kinase assays using IGF-1R and IR kinase GST fusion proteins were conducted using a homogeneous time-resolved fluorescence (HTRF) format. Kinase reactions were carried out in a 384-well plate format in a final volume of 20 μL. The standard enzyme reaction buffer consisted of 50 mM Tris HCL (pH: 7.4), 1 mM EGTA, 10 mM MgCl2, 2 mM DTT, 0.01% Tween-20, IGF-1R/IR kinase enzyme, poly GT peptide substrate (Perkin Elmer [Ulight Glu-Tyr (4:1)]n) and ATP [concentration equivalent to Kmapp] […] Briefly, 2.5 μL enzyme and 2.5 μL inhibitor was preincubated for 10 minutes at 23° C. followed by the addition of 2.5 μL of poly GT substrate (final concentration of 50 nM). Reaction was initiated with the addition of 2.5 μL of ATP (final concentration of 20 μM for IGF-1R assay and 10 μM for IR assay). After 1 hour incubation at 23° C., the kinase reaction was stopped with the addition of 5 μL EDTA (final concentration of 10 mM in 20 μL). Europium cryptate—labeled antiphosphotyrosine antibody PY20 (5 μL) was added (final concentration of 2 nM) and the mixture was allowed to equilibrate for 1 hour at 23° C. followed by reading the plate in an Envision plate reader.
The intensity of light emission at 665 nm was directly proportional to the level of substrate phosphorylation. The IC50 values for inhibitors were determined by a four-parameter sigmoidal curve fit (Sigma plot or Graph pad).
IGFRK and IRK enzyme used for the assay was intracellular kinase domain of human IGF-1R and human IR cloned and expressed as GST fusion proteins using the baculovirus expression system and purified using glutathione—Sepharose column.

Compound	IC50 [2]	other results
NC(=O)c1[nH]c2ccc(Cl)cc2c1S(=O)(=O)N1CCO[C@H](COc2cccc(-c3cccnc3F)c2)C1 [Compound 3, (S)-5-chloro-3-((2-((3-(2-fluoropyridin-3-yl)phenoxy)methyl)morpholino)sulfonyl)-1H-indole-2-carboxamide]	31.2 nM	AUC as compared to compound 999 [1]: higher; Cmax as compared to compound 999 [1]: higher; Cmax ([1]; male, mouse, plasma, po): 2980 nM; half-life ([1]; male, mouse, plasma, po): 4.6 h; AUC(0-inf) ([1]; male, mouse, plasma, po, read-out: AUC0-infinity): 1960 ng·h/mL
Cc1cc(OC[C@@H]2CN(S(=O)(=O)c3c(C(N)=O)[nH]c4ccc(Cl)cc34)CCO2)ccc1-c1ccncc1 [Compound 67, (S)-5-chloro-3-((2-((3-methyl-4-(pyridin-4-yl)phenoxy)methyl)morpholino)sulfonyl)-1H-indole-2-carboxamide]	4.3 nM	
Cc1cc(OC[C@@H]2CN(S(=O)(=O)c3c(C(N)=O)[nH]c4ccc(Cl)cc34)CCO2)ccc1-c1cccnc1F [Compound 68, (S)-5-chloro-3-((2-((4-(2-fluoropyridin-3-yl)-3-methylphenoxy)methyl)morpholino)sulfonyl)-1H-indole-2-carboxamide]	37.9 nM	
COc1ccc(-c2ccc(OC[C@@H]3CN(S(=O)(=O)c4c(C(N)=O)[nH]c5ccc(Cl)cc45)CCO3)cc2C)cn1 [Compound 69, (S)-5-chloro-3-((2-((4-(6-methoxypyridin-3-yl)-3-methylphenoxy)methyl)morpholino)sulfonyl)-1H-indole-2-carboxamide]	> 100 nM	
COc1cc(-c2ccc(OC[C@@H]3CN(S(=O)(=O)c4c(C(N)=O)[nH]c5ccc(Cl)cc45)CCO3)cc2C)ccn1 [Compound 70, (S)-5-chloro-3-((2-((4-(2-methoxypyridin-4-yl)-3-methylphenoxy)methyl)morpholino)sulfonyl)-1H-indole-2-carboxamide]	75.9 nM	
Cc1cc(OC[C@@H]2CN(S(=O)(=O)c3c(C(N)=O)[nH]c4ccc(Cl)cc34)CCO2)ccc1-c1cncnc1 [Compound 71, (S)-5-chloro-3-((2-((3-methyl-4-(pyrimidin-5-yl)phenoxy)methyl)morpholino)sulfonyl)-1H-indole-2-carboxamide]	5.3 nM	
Cc1cc(OC[C@@H]2CN(S(=O)(=O)c3c(C(N)=O)[nH]c4ccc(Cl)cc34)CCO2)ccc1-c1ccnc(F)c1 [Compound 72, (S)-5-chloro-3-((2-((4-(2-fluoropyridin-4-yl)-3-methylphenoxy)methyl)morpholino)sulfonyl)-1H-indole-2-carboxamide]	13.3 nM	
Cc1cc(OC[C@@H]2CN(S(=O)(=O)c3c(C(N)=O)[nH]c4ccc(Cl)cc34)CCO2)ccc1-c1ccc(F)nc1 [Compound 73, (S)-5-chloro-3-((2-((4-(6-fluoropyridin-3-yl)-3-methylphenoxy)methyl)morpholino)sulfonyl)-1H-indole-2-carboxamide]	30 nM	
NC(=O)c1[nH]c2ccc(Cl)cc2c1S(=O)(=O)N1CCO[C@H](COc2cncc(-c3cc(C(F)(F)F)ccc3F)c2)C1 [Compound 75]	> 1000 nM	
NC(=O)c1[nH]c2ccc(Cl)cc2c1S(=O)(=O)N1CCO[C@H](COc2cncc(-c3ccccc3)c2)C1 [Compound 76, (S)-5-chloro-3-((2-(((5-phenylpyridin-3-yl)oxy)methyl)morpholino)sulfonyl)-1H-indole-2-carboxamide]	> 1000 nM	
NC(=O)c1[nH]c2ccc(Cl)cc2c1S(=O)(=O)N1CCO[C@H](COc2cnc(-c3ccccc3)cn2)C1 [Compound 77, (S)-5-chloro-3-((2-(((5-phenylpyrazin-2-yl)oxy)methyl)morpholino)sulfonyl)-1H-indole-2-carboxamide]	204 nM	
NC(=O)c1[nH]c2ccc(Cl)cc2c1S(=O)(=O)N1CCO[C@H](COc2cncc(-c3ccccc3F)c2)C1 [Compound 78]	> 1000 nM	
NC(=O)c1[nH]c2ccc(Cl)cc2c1S(=O)(=O)N1CCO[C@H](COc2ccc(-c3ccccc3)nc2)C1 [Compound 79, (S)-5-chloro-3-((2-(((6-phenylpyridin-3-yl)oxy)methyl)morpholino)sulfonyl)-1H-indole-2-carboxamide]	25.4 nM	
NC(=O)c1[nH]c2ccc(Cl)cc2c1S(=O)(=O)N1CCO[C@H](COc2cccc(-c3ccccc3)n2)C1 [Compound 80, (S)-5-chloro-3-((2-(((6-phenylpyridin-2-yl)oxy)methyl)morpholino)sulfonyl)-1H-indole-2-carboxamide]	47.1 nM	
NC(=O)c1[nH]c2ccc(Cl)cc2c1S(=O)(=O)N1CCO[C@H](COc2ccc(-c3ccccc3)cn2)C1 [Compound 81, (S)-5-chloro-3-((2-(((5-phenylpyridin-2-yl)oxy)methyl)morpholino)sulfonyl)-1H-indole-2-carboxamide]	> 1000 nM	
Cc1cc(-c2ccc(OC[C@@H]3CN(S(=O)(=O)c4c(C(N)=O)[nH]c5ccc(Cl)cc45)CCO3)cc2)cc(C)n1 [Compound 82, (S)-5-chloro-3-((2-((4-(2,6-dimethylpyridin-4-yl)phenoxy)methyl)morpholino)sulfonyl)-1H-indole-2-carboxamide]	13.2 nM	
NC(=O)c1[nH]c2ccc(Cl)cc2c1S(=O)(=O)N1CCO[C@H](COc2ccc(-c3ccccc3Cl)cc2)C1 [Compound 83, (S)-5-chloro-3-((2-(((2′-chloro-[1,1′-biphenyl]-4-yl)oxy)methyl)morpholino)sulfonyl)-1H-indole-2-carboxamide]	97 nM	
NC(=O)c1[nH]c2ccc(Cl)cc2c1S(=O)(=O)N1CCO[C@H](COc2cccc(-c3ccnc(Cl)c3)c2)C1 [Compound 85, (S)-5-chloro-3-((2-((3-(2-chloropyridin-4-yl)phenoxy)methyl)morpholino)sulfonyl)-1H-indole-2-carboxamide]	9.7 nM	
NC(=O)c1[nH]c2ccc(Cl)cc2c1S(=O)(=O)N1CCO[C@H](COc2cccc(-c3ccc(Cl)nc3)c2)C1 [Compound 86, (S)-5-chloro-3-((2-((3-(6-chloropyridin-3-yl)phenoxy)methyl)morpholino)sulfonyl)-1H-indole-2-carboxamide]	4.9 nM	
Cc1cc(OC[C@@H]2CN(S(=O)(=O)c3c(C(N)=O)[nH]c4ccc(Cl)cc34)CCO2)ccc1-c1ccc(Cl)nc1 [Compound 88, (S)-5-chloro-3-((2-((4-(6-chloropyridin-3-yl)-3-methylphenoxy)methyl)morpholino)sulfonyl)-1H-indole-2-carboxamide]	67 nM	
NC(=O)c1[nH]c2ccc(Cl)cc2c1S(=O)(=O)N1CCO[C@H](COc2cc3ccccc3nn2)C1 [Compound 89, (S)-5-chloro-3-((2-((cinnolin-3-yloxy)methyl)morpholino)sulfonyl)-1H-indole-2-carboxamide]	136 nM	
NC(=O)c1[nH]c2ccc(Cl)cc2c1S(=O)(=O)N1CCO[C@H](COc2cccc3cccnc23)C1 [Compound 90, (S)-5-chloro-3-((2-((quinolin-8-yloxy)methyl)morpholino)sulfonyl)-1H-indole-2-carboxamide]	> 100 nM	
NC(=O)c1[nH]c2ccc(Cl)cc2c1S(=O)(=O)N1CCO[C@H](COc2ncnc3ccccc23)C1 [Compound 91, (S)-5-chloro-3-((2-((quinazolin-4-yloxy)methyl)morpholino)sulfonyl)-1H-indole-2-carboxamide]	> 100 nM	
Cn1nc(-c2ccccc2)cc1OC[C@@H]1CN(S(=O)(=O)c2c(C(N)=O)[nH]c3ccc(Cl)cc23)CCO1 [Compound 92, (S)-5-chloro-3-((2-(((1-methyl-3-phenyl-1H-pyrazol-5-yl)oxy)methyl)morpholino)sulfonyl)-1H-indole-2-carboxamide]	> 100 nM	
(S)-5-chloro-3-((2-((3′-(dimethylamino)-[1,1′-biphenyl]-3-yl)oxy)methyl)morpholino)sulfonyl)-1H-indole-2-carboxamide [Compound 9]	220 nM	
(S)-5-chloro-3-((2-((5-(4-methoxyphenyl)pyridin-3-yl)oxy)methyl)morpholino)sulfonyl)-1H-indole-2-carboxamide [Compound 74]	> 1000 nM	
